Tests used:
[1] = test system: Tyrosine-protein kinase ABL1 (Homo sapiens), P00519 [F317I]; assay: Binding affinity to human non-phosphorylated ABL1 F317I mutant (S229 to K512 residues) expressed in mammalian expression system assessed as residual binding level at 10 uM by Kinomescan method relative to control
[2] = test system: Tyrosine-protein kinase ABL1 (Homo sapiens), P00519 [M351T]; assay: Binding affinity to human phosphorylated ABL1 M351T mutant (S229 to K512 residues) expressed in mammalian expression system assessed as residual binding level at 10 uM by Kinomescan method relative to control
[3] = molecular target: RAC-beta serine/threonine-protein kinase (Homo sapiens) (UniProt P31751); assay: Binding affinity to wild-type human partial length AKT2 expressed in bacterial expression system assessed as residual binding level at 10 uM by Kinomescan method relative to control
[4] = molecular target: Ankyrin repeat and protein kinase domain-containing protein 1 (Homo sapiens) (UniProt Q8NFD2); assay: Binding affinity to wild-type human partial length ANKK1 (M1 to A305 residues) expressed in mammalian expression system assessed as residual binding level at 10 uM by Kinomescan method relative to control
[5] = molecular target: Mitogen-activated protein kinase kinase kinase 6 (Homo sapiens) (UniProt O95382); assay: Binding affinity to wild-type human partial length ASK2 (M278 to R972 residues) expressed in mammalian expression system assessed as residual binding level at 10 uM by Kinomescan method relative to control
[6] = molecular target: Aurora kinase B (Homo sapiens) (UniProt Q96GD4); assay: Binding affinity to wild-type human partial length AURKB (D25 to A303 residues) expressed in mammalian expression system assessed as residual binding level at 10 uM by Kinomescan method relative to control
[7] = molecular target: Ephrin type-B receptor 4 (Homo sapiens) (UniProt P54760); assay: Binding affinity to wild-type human partial length EPHB4 (H585 to G892 residues) expressed in bacterial expression system assessed as residual binding level at 10 uM by Kinomescan method relative to control
[8] = molecular target: Insulin receptor (Homo sapiens) (UniProt P06213); assay: Binding affinity to wild-type human partial length INSR (P997 to E1318 residues) expressed in mammalian expression system assessed as residual binding level at 10 uM by Kinomescan method relative to control
[9] = molecular target: Mitogen-activated protein kinase 10 (Homo sapiens) (UniProt P53779); assay: Binding affinity to wild-type human partial length JNK3 (V28 to Q422 residues) expressed in mammalian expression system assessed as residual binding level at 10 uM by Kinomescan method relative to control
[10] = molecular target: LIM domain kinase 2 (Homo sapiens) (UniProt P53671); assay: Binding affinity to wild-type human full length LIMK2 (M1 to P638 residues) expressed in bacterial expression system assessed as residual binding level at 10 uM by Kinomescan method relative to control
[11] = molecular target: Mitogen-activated protein kinase kinase kinase 4 (Homo sapiens) (UniProt Q9Y6R4); assay: Binding affinity to wild-type human partial length MAP3K4 (G1319 to E1608 residues) expressed in bacterial expression system assessed as residual binding level at 10 uM by Kinomescan method relative to control
[12] = molecular target: Serine/threonine-protein kinase MARK1 (Homo sapiens) (UniProt Q9P0L2); assay: Binding affinity to wild-type human partial length MARK1 (Q30 to T341 residues) expressed in bacterial expression system assessed as residual binding level at 10 uM by Kinomescan method relative to control
[13] = molecular target: Serine/threonine-protein kinase MRCK beta (Homo sapiens) (UniProt Q9Y5S2); assay: Binding affinity to wild-type human partial length MRCKB (L56 to S417 residues) expressed in bacterial expression system assessed as residual binding level at 10 uM by Kinomescan method relative to control
[14] = molecular target: Serine/threonine-protein kinase Nek11 (Homo sapiens) (UniProt Q8NG66); assay: Binding affinity to wild-type human partial length NEK11 (M1 to E313 residues) expressed in mammalian expression system assessed as residual binding level at 10 uM by Kinomescan method relative to control
[15] = molecular target: Serine/threonine-protein kinase Nek4 (Homo sapiens) (UniProt P51957); assay: Binding affinity to wild-type human full length NEK4 (M1 to F841 residues) expressed in mammalian expression system assessed as residual binding level at 10 uM by Kinomescan method relative to control
[16] = molecular target: Serine/threonine-protein kinase PAK 1 (Homo sapiens) (UniProt Q13153); assay: Binding affinity to wild-type human partial length PAK1 (S149 to H545 residues) expressed in bacterial expression system assessed as residual binding level at 10 uM by Kinomescan method relative to control
[17] = molecular target: Phosphatidylinositol 4-phosphate 3-kinase C2 domain-containing subunit beta (Homo sapiens) (UniProt O00750); assay: Binding affinity to wild-type human partial length PIK3C2B (M1 to L1634 residues) expressed in mammalian expression system assessed as residual binding level at 10 uM by Kinomescan method relative to control
[18] = molecular target: Phosphatidylinositol 4,5-bisphosphate 3-kinase catalytic subunit delta isoform (Homo sapiens) (UniProt O00329); assay: Binding affinity to wild-type human partial length PIK3CD (R108 to Q1044 residues) expressed in mammalian expression system assessed as residual binding level at 10 uM by Kinomescan method relative to control
[19] = molecular target: cGMP-dependent protein kinase 2 (Homo sapiens) (UniProt Q13237); assay: Binding affinity to wild-type human partial length PRKG2 (S422 to F762 residues) expressed in mammalian expression system assessed as residual binding level at 10 uM by Kinomescan method relative to control
[20] = molecular target: Dual serine/threonine and tyrosine protein kinase (Homo sapiens) (UniProt Q6XUX3); assay: Binding affinity to wild-type human full length RIPK5 (M1 to T929 residues) expressed in mammalian expression system assessed as residual binding level at 10 uM by Kinomescan method relative to control
[21] = molecular target: Serine/threonine-protein kinase 35 (Homo sapiens) (UniProt Q8TDR2); assay: Binding affinity to wild-type human partial length STK35 (G182 to A534 residues) expressed in bacterial expression system assessed as residual binding level at 10 uM by Kinomescan method relative to control
[22] = molecular target: Dual specificity testis-specific protein kinase 1 (Homo sapiens) (UniProt Q15569); assay: Binding affinity to wild-type human full length TESK1 (R37 to S626 residues) expressed in bacterial expression system assessed as residual binding level at 10 uM by Kinomescan method relative to control
[23] = molecular target: Vascular endothelial growth factor receptor 2 (Homo sapiens) (UniProt P35968); assay: Binding affinity to wild-type human partial length VEGFR2 (R787 to P1253 residues) expressed in mammalian expression system assessed as residual binding level at 10 uM by Kinomescan method relative to control
[24] = molecular target: Serine/threonine-protein kinase WNK3 (Homo sapiens) (UniProt Q9BYP7); assay: Binding affinity to wild-type human partial length WNK3 (M1 to D434 residues) expressed in mammalian expression system assessed as residual binding level at 10 uM by Kinomescan method relative to control
Chain of Serine/threonine-protein kinase WNK3 (Homo sapiens) (Q9BYP7 whole entry, the tested form may be a part): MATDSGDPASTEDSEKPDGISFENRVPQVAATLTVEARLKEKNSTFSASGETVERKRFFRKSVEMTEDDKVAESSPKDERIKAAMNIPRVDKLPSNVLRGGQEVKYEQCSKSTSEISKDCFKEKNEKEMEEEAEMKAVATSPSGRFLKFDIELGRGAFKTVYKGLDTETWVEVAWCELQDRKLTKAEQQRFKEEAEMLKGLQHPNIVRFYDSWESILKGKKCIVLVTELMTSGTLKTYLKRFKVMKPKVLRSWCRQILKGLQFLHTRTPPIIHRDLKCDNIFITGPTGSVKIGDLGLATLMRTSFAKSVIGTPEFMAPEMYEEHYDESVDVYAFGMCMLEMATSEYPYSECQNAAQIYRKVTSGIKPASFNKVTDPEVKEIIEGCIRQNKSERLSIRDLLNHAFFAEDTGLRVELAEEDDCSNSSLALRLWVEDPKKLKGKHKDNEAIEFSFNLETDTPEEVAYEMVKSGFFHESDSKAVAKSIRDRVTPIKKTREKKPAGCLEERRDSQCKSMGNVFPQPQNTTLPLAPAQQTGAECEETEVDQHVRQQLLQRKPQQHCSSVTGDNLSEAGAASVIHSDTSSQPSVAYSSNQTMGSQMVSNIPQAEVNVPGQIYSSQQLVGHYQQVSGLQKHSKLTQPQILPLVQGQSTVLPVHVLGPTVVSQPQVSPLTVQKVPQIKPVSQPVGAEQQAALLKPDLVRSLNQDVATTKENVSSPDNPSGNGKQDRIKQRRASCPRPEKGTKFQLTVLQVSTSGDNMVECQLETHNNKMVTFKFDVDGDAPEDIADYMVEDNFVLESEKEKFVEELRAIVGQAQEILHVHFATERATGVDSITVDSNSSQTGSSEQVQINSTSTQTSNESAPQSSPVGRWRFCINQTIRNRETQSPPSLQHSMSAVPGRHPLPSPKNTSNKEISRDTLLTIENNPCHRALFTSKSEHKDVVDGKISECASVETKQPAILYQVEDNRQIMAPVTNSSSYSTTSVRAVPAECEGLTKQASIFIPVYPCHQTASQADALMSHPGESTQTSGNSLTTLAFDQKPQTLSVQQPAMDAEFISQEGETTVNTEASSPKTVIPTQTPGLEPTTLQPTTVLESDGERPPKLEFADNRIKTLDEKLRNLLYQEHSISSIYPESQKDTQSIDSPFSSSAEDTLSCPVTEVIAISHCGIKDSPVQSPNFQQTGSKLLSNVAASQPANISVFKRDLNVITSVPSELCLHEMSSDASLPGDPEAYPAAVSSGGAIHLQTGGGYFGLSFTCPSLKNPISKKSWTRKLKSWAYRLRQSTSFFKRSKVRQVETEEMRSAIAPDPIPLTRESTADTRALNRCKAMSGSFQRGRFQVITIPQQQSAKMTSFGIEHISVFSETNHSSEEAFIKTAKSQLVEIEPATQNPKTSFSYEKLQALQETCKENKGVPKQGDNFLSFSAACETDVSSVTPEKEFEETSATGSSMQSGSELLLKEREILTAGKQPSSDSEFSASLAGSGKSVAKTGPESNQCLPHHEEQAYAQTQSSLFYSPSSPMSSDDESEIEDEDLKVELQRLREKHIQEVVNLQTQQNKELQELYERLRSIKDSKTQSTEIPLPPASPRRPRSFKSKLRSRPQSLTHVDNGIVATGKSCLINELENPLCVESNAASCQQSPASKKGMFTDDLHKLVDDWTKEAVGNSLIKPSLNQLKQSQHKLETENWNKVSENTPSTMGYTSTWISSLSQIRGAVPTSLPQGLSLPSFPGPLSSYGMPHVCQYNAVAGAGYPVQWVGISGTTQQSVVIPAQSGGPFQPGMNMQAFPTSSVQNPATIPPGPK

Chain of Ankyrin repeat and protein kinase domain-containing protein 1 (Homo sapiens) (Q8NFD2 whole entry, the tested form may be a part): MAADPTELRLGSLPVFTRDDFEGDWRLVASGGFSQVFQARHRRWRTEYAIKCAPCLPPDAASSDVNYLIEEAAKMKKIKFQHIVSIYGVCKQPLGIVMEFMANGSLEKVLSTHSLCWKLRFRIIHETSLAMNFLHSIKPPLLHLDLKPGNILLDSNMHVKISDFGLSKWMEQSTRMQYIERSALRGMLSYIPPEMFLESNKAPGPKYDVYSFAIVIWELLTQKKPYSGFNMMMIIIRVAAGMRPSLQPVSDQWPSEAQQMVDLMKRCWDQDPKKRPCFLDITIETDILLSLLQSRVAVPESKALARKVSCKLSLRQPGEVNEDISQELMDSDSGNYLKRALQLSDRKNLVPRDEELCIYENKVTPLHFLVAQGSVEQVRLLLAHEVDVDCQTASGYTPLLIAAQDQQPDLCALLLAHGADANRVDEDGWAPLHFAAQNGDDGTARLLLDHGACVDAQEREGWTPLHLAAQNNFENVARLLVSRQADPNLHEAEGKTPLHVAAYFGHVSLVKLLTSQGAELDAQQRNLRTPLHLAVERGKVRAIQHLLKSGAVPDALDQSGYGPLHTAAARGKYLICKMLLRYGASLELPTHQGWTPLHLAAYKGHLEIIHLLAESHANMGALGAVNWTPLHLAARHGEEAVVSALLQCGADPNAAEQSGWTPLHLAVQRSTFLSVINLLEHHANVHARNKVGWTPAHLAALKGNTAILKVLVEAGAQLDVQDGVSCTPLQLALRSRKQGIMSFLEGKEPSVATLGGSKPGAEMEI
Chain of Vascular endothelial growth factor receptor 2 (Homo sapiens) (P35968 whole entry, the tested form may be a part): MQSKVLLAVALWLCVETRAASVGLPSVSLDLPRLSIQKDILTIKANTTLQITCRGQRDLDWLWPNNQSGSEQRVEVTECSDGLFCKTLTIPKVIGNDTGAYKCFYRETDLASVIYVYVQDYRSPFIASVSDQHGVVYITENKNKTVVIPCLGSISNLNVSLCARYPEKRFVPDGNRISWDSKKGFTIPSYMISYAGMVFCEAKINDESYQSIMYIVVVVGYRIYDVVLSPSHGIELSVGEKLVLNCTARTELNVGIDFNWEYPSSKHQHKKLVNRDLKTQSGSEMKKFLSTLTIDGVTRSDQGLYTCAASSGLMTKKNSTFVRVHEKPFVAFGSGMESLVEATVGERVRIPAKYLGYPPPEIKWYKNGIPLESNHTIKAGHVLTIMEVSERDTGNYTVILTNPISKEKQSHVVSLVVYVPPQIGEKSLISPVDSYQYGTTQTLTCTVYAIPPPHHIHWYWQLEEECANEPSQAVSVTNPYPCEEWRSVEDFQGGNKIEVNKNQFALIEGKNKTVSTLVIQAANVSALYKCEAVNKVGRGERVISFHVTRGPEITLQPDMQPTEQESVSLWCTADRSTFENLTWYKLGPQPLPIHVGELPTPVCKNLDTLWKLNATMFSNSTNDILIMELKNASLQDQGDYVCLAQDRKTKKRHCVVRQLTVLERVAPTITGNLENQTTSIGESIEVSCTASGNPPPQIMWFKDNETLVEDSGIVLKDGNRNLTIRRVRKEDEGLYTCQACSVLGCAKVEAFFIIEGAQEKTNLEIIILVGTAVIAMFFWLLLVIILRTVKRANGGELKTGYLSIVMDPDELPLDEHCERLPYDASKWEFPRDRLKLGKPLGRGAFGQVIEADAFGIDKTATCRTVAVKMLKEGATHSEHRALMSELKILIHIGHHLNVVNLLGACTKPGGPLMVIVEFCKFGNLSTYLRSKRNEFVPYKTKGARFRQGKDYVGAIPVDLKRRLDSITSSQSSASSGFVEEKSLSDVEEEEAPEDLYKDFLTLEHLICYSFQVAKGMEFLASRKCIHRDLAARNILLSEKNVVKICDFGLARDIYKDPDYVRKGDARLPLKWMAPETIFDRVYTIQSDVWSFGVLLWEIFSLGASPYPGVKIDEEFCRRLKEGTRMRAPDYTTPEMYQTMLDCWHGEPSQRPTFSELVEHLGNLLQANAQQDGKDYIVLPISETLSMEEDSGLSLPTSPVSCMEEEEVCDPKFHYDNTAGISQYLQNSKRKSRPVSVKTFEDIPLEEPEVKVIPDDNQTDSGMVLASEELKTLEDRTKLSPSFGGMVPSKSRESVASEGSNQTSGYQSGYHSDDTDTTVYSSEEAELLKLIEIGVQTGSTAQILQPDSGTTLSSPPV
Chain of Serine/threonine-protein kinase 35 (Homo sapiens) (Q8TDR2 whole entry, the tested form may be a part): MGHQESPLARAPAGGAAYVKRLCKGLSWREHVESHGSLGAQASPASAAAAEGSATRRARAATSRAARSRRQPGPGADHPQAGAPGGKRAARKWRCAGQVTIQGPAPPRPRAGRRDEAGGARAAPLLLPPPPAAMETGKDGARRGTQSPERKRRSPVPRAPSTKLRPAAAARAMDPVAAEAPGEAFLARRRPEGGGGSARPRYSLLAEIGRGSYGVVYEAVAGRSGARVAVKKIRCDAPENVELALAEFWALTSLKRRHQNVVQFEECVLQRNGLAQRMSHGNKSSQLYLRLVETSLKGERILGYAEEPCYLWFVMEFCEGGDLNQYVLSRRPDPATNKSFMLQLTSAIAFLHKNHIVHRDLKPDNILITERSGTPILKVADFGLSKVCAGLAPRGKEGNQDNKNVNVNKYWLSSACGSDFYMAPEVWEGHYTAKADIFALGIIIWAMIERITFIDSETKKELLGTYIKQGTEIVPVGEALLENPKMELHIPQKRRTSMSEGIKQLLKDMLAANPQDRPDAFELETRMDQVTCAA
Chain of Mitogen-activated protein kinase 10 (Homo sapiens) (P53779 whole entry, the tested form may be a part): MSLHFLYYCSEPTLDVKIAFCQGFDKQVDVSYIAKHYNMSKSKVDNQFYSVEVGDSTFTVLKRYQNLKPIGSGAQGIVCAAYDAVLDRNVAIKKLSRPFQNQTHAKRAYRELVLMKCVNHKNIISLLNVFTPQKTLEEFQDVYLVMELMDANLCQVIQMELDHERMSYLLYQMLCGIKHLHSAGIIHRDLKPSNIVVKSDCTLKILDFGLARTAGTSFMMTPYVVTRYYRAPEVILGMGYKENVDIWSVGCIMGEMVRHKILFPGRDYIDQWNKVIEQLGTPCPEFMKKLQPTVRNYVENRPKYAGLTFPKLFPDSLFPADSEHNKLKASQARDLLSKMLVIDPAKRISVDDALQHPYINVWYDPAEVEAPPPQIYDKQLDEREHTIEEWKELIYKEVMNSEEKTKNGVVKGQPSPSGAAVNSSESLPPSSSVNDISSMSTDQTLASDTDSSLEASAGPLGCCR

CC(C)N1C(=O)C(NCCCN(C)C)=C(c2cn(C)c3ccccc23)C1=O.Cl
Activity [1]: 88%
Activity [2]: 93%
Activity [3]: 100%
Activity [4]: 90%
Activity [5]: 98%
Activity [6]: 84%
Activity [7]: 100%
Activity [8]: 100%
Activity [9]: 85%
Activity [10]: 93%
Activity [11]: 85%
Activity [12]: 67%
Activity [13]: 85%
Activity [14]: 100%
Activity [15]: 96%
Activity [16]: 92%
Activity [17]: 81%
Activity [18]: 78%
Activity [19]: 88%
Activity [20]: 100%
Activity [21]: 100%
Activity [22]: 82%
Activity [23]: 66%
Activity [24]: 78%

— ChEMBL document CHEMBL4304811, “Development of a Water-Soluble Indolylmaleimide Derivative IM-93 Showing Dual Inhibition of Ferroptosis and NETosis” (ACS Med Chem Lett, 2019)
